Data as given in ChEMBL document CHEMBL1201862, “PubChem BioAssay data set” (2004).
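96-well plates; 48 h exposure; 5 concentrations. Endpoints by linear interpolation between flanking doses. Not reached: highest tested concentration assigned. GI50 is the concentration that inhibits growth by half.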 Active and inactive are the calls of the source. Rule as the data show it: active = GI50 up to about 1.1 µM and inactive = higher.

How the values were obtained:
Assay in all cases: growth of human tumour cells (NCI), 48 h
A549 = tested on: A549
HCT-15 = tested on: HCT-15
MDA-N = tested on: MDA-N
HT-29 = tested on: HT-29
PC-3 = tested on: PC-3
K562 = tested on: K562
MDA-MB-231 = tested on: MDA-MB-231
786-0 = tested on: 786-0
HL-60 = tested on: HL-60
EKVX = tested on: EKVX
UACC-257 = tested on: UACC-257
OVCAR-8 = tested on: OVCAR-8
HCC 2998 = tested on: HCC 2998
MOLT-4 = tested on: MOLT-4
SK-MEL-28 = tested on: SK-MEL-28
RPMI-8226 = tested on: RPMI-8226
MCF7 = tested on: MCF7
COLO 205 = tested on: COLO 205
T47D = tested on: T47D
SF-295 = tested on: SF-295
CAKI-1 = tested on: CAKI-1
SN12C = tested on: SN12C
SNB-75 = tested on: SNB-75
HOP-62 = tested on: HOP-62
RXF 393 = tested on: RXF 393
SR = tested on: SR
SK-MEL-5 = tested on: SK-MEL-5
DU-145 = tested on: DU-145
TK-10 = tested on: TK-10
Malme-3M = tested on: Malme-3M
SW-620 = tested on: SW-620
M14 = tested on: M14
UACC-62 = tested on: UACC-62
SK-OV-3 = tested on: SK-OV-3
IGROV-1 = tested on: IGROV-1
CCRF-CEM = tested on: CCRF-CEM
NCI-H23 = tested on: NCI-H23
KM12 = tested on: KM12
SF-539 = tested on: SF-539
OVCAR-3 = tested on: OVCAR-3
HOP-92 = tested on: HOP-92
OVCAR-5 = tested on: OVCAR-5
SNB-19 = tested on: SNB-19
HCT-116 = tested on: HCT-116
LOX IMVI = tested on: LOX IMVI
NCI-H226 = tested on: NCI-H226
U-251 = tested on: U-251
ACHN = tested on: ACHN
NCI-H460 = tested on: NCI-H460
Hs-578T = tested on: Hs-578T
A498 = tested on: A498
NCI-H522 = tested on: NCI-H522
SF-268 = tested on: SF-268
OVCAR-4 = tested on: OVCAR-4

CCC1(c2ccccc2)Sc2ccccc2-n2cccc2C1=O (stereo unspecified)
GI50 (A549): > 10 µM (inactive) | GI50 (HCT-15): 8.79 µM | GI50 (MDA-N): 3.5 µM (inactive) | GI50 (HT-29): 9.62 µM (inactive) | GI50 (PC-3): 8.53 µM (inactive) | GI50 (K562): 4.6 µM (inactive) | GI50 (MDA-MB-231): 9.31 µM (inactive) | GI50 (786-0): > 10 µM (inactive) | GI50 (HL-60): 4.12 µM (inactive) | GI50 (EKVX): > 10 µM (inactive) | GI50 (UACC-257): > 10 µM (inactive) | GI50 (OVCAR-8): > 10 µM (inactive) | GI50 (HCC 2998): > 10 µM (inactive) | GI50 (MOLT-4): 5.37 µM (inactive) | GI50 (SK-MEL-28): > 10 µM (inactive) | GI50 (RPMI-8226): 4.32 µM (inactive) | GI50 (MCF7): > 10 µM (inactive) | GI50 (COLO 205): > 10 µM (inactive) | GI50 (T47D): > 10 µM (inactive) | GI50 (SF-295): > 10 µM (inactive) | GI50 (CAKI-1): > 10 µM (inactive) | GI50 (SN12C): > 10 µM (inactive) | GI50 (SNB-75): > 10 µM (inactive) | GI50 (HOP-62): > 10 µM (inactive) | GI50 (RXF 393): 9.79 µM (inactive) | GI50 (SR): 3.79 µM (inactive) | GI50 (SK-MEL-5): > 10 µM (inactive) | GI50 (DU-145): > 10 µM (inactive) | GI50 (TK-10): > 10 µM (inactive) | GI50 (Malme-3M): 8.34 µM (inactive) | GI50 (SW-620): > 10 µM (inactive) | GI50 (M14): > 10 µM (inactive) | GI50 (UACC-62): > 10 µM (inactive) | GI50 (SK-OV-3): > 10 µM (inactive) | GI50 (IGROV-1): > 10 µM (inactive) | GI50 (CCRF-CEM): > 10 µM (inactive) | GI50 (NCI-H23): > 10 µM (inactive) | GI50 (KM12): 7.8 µM (inactive)

CN(NC(=O)CC(=O)NN(C)C(=S)c1ccccc1)C(=S)c1ccccc1 [ELESCLOMOL]
GI50 (SF-539): > 100 µM (inactive) | GI50 (OVCAR-3): > 100 µM (inactive) | GI50 (MDA-N): > 100 µM (inactive) | GI50 (HT-29): < 0.01 µM (active) | GI50 (HOP-92): > 100 µM (inactive) | GI50 (OVCAR-5): > 100 µM (inactive) | GI50 (EKVX): 33.9 µM (inactive) | GI50 (HCC 2998): 64.7 µM (inactive) | GI50 (SNB-19): 84.7 µM (inactive) | GI50 (HCT-116): 62.1 µM (inactive) | GI50 (LOX IMVI): 35.4 µM (inactive) | GI50 (RPMI-8226): < 0.01 µM (active) | GI50 (SF-295): 46 µM (inactive) | GI50 (NCI-H226): 83.8 µM (inactive) | GI50 (SR): 28.3 µM (inactive) | GI50 (TK-10): > 100 µM (inactive) | GI50 (SW-620): 67 µM (inactive) | GI50 (UACC-62): 50.2 µM (inactive) | GI50 (SK-OV-3): > 100 µM (inactive) | GI50 (IGROV-1): > 100 µM (inactive)

COc1ccc2cc1Oc1ccc(cc1)C[C@@H]1c3cc(c(OC)cc3CCN1C)Oc1c(OC)c(OC)cc3c1[C@H](C2)N(C)CC3 [ISOTETRANDRINE]
GI50 (SF-539): 8.89 µM (inactive) | GI50 (OVCAR-3): 18.2 µM (inactive) | GI50 (HCT-15): 11.2 µM | GI50 (U-251): 22.2 µM (inactive) | GI50 (ACHN): 13.4 µM (inactive) | GI50 (HOP-92): > 10 µM (inactive) | GI50 (K562): 4.16 µM (inactive) | GI50 (MDA-MB-231): 14.7 µM (inactive) | GI50 (786-0): 24.7 µM (inactive) | GI50 (HL-60): 10.8 µM (inactive) | GI50 (NCI-H460): 15.2 µM (inactive) | GI50 (UACC-257): 11.3 µM (inactive) | GI50 (OVCAR-8): 17.9 µM (inactive) | GI50 (HCC 2998): 12.7 µM (inactive) | GI50 (SNB-19): 20.4 µM (inactive) | GI50 (HCT-116): 17.7 µM (inactive) | GI50 (Hs-578T): 16.7 µM (inactive) | GI50 (MCF7): 14 µM (inactive) | GI50 (SF-295): 16.3 µM (inactive) | GI50 (A498): 19.7 µM (inactive) | GI50 (SNB-75): 12.4 µM (inactive) | GI50 (NCI-H522): 12.6 µM (inactive) | GI50 (SF-268): 21.7 µM (inactive) | GI50 (RXF 393): 1.44 µM (inactive) | GI50 (SR): 2.41 µM (inactive) | GI50 (OVCAR-4): 17.9 µM (inactive) | GI50 (SK-MEL-5): 11.8 µM (inactive) | GI50 (TK-10): 19.1 µM (inactive) | GI50 (M14): 11.1 µM (inactive) | GI50 (SK-OV-3): 40.2 µM (inactive) | GI50 (IGROV-1): 20.7 µM (inactive) | GI50 (CCRF-CEM): 16.9 µM (inactive) | GI50 (NCI-H23): 15.8 µM (inactive)
